We go through 12 molecules from BindingDB's records for patent US10322118 (Dartmouth College, 2019).

In one experiment the target is T1, Putative hydrolase (Pseudomonas aeruginosa (strain UCBPP-PA14), UniProt A0A0H2ZD27).
T1 sequence (A0A0H2ZD27 whole entry): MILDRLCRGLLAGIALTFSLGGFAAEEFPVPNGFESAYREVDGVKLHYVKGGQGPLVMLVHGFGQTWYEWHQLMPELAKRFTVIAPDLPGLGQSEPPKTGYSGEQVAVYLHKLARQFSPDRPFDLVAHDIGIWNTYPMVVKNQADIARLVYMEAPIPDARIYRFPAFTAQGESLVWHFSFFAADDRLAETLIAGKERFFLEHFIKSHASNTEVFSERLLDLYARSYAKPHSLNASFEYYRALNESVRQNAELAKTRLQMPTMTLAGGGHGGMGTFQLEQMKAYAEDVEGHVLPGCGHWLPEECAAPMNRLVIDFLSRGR
Put plainly: Biochemical Characterization of Cif Inhibitors.

For experiment [1], the target named is T2, Bifunctional epoxide hydrolase 2 (Homo sapiens, UniProt P34913).
T2 sequence (P34913 whole entry): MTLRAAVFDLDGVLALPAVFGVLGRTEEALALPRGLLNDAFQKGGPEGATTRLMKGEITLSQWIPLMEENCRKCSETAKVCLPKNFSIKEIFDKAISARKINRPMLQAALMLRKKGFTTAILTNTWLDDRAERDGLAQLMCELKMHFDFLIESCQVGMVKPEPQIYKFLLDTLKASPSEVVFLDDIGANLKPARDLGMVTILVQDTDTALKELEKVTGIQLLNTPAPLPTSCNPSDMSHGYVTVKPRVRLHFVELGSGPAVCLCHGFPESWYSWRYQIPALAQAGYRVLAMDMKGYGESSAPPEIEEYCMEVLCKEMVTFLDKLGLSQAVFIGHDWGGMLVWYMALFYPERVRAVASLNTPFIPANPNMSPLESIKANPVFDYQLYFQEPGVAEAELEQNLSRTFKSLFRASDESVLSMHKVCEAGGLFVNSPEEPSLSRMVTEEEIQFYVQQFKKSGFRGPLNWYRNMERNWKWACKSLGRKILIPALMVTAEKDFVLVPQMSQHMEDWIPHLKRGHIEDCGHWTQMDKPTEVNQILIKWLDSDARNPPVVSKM
Description: Biochemical Characterization of Cif Inhibitors.

On to `Nc1ccc(Oc2ccccc2)cc1` [US10322118, Entry 10], for which, at Putative hydrolase, the IC50 (commonly the midpoint of a concentration-inhibition curve) was over 100 µM.

The molecule `CN(C(=O)NC(=O)c1c(F)cccc1F)c1ccc(Cl)cc1` [US10322118, Urea-Based Scaffold Entry 7] gave an IC50 at Putative hydrolase of over 100 µM.

`Cc1ccc(-c2cc(C(F)(F)F)nn2-c2ccc(S(N)(=O)=O)cc2)cc1` [US10322118, Urea-Based Scaffold Entry 9] registered an IC50 against Putative hydrolase of 7.4 µM.

In the case of `O=C(O)Cc1cc(I)c(Oc2ccc(O)cc2)c(I)c1` [US10322118, Entry 3], the IC50 at Putative hydrolase is 100 µM.

With `Cc1cc(C)cc(NC(=O)NC(=O)c2c(F)cccc2F)c1` [US10322118, Urea-Based Scaffold Entry 3], the midpoint of inhibition against Putative hydrolase, the IC50, lay at 1.8 µM.

`Oc1ccc(Oc2ccccc2)cc1` [US10322118, Entry 9] returned an IC50 at Putative hydrolase of over 100 µM.

With `O=C(O)Cc1cc(I)c(Oc2cc(I)c(O)c(I)c2)c(I)c1` [US10322118, Entry 1], the IC50 against Putative hydrolase worked out at 20 µM.

On to `CCC(=O)Oc1ccc(NC(=O)NC23CC4CC(CC(C4)C2)C3)cc1` [US10322118, Urea-Based Scaffold Entry 1], for which the IC50 in experiment [1] was 0.0038 µM; on Putative hydrolase it was over 100 µM.

On Putative hydrolase, `O=C(O)c1ccc(Oc2ccccc2)cc1` [US10322118, Entry 11] came in with an IC50 of over 100 µM.

With `CCCCCCCCCCCCS(C)(=O)=O` [US10322118, Urea-Based Scaffold Entry 8], the midpoint of inhibition in experiment [1], the IC50, lay at 33.3 µM.

For `Cc1cc(OCC(=O)O)cc(C)c1Cc1ccc(O)c(C(C)C)c1` [US10322118, Entry 7], the IC50 on Putative hydrolase is over 100 µM.

For the molecule `O=C(NC(=O)c1c(F)cccc1F)Nc1cc(Cl)cc(Cl)c1` [US10322118, Urea-Based Scaffold Entry 4], the IC50 on Putative hydrolase came to 1.5 µM.
